Laboratory results reported in patent US9222118B2 (priority 2008, dated 2015).
Entries after “also recorded” stand apart in the source; their conditions may differ. Structures can show the parent of a compound that is named as a salt. Where two headings read alike, the source gives them in different places.

Assays:
EbolaΔVP30-GFP virus = assay: microbe, parasite or virus in culture; type: cell-based, Zaire ebolavirus; conditions: for % GFP inhibition: 5 µM; for inhibition at 5 µM: read-out: % GFP inhibition
VSVΔG*-Ebolavirus GP = type: cell-based
EbolaΔVP30-GFP = type: cell-based, Zaire ebolavirus
Ebolavirus minigenome = type: cell-based
vaccinia virus = type: cell-based
adenovirus Ad-5 = type: cell-based
[1] = system: Vesicular stomatitis virus (VSV) strain Indiana; type: cell-based
in vitro = conditions: green monkey
[2] = system: VSV pseudotyped with Ebola GP glycoprotein; type: cell-based, Ebolavirus
[3] = system: VSV pseudotyped with GPs of all known subtypes of Ebolavirus (Zaire, Reston, Sudan, Ivory Coast); type: cell-based
[4] = system: VSV pseudotyped with the GP protein of Marburgvirus; type: cell-based
VSV = type: cell-based
influenza virus = type: cell-based
[5] = system: phosphoinositide-3 (PI3) kinase-Akt pathway; type: cell-based

Compound: 1,2alpha-Epoxy-7-Deacetoxy-7-Oxo-Deoxyhydrogedunin
- % GFP inhibition (EbolaΔVP30-GFP virus): 75%
- IC50 (EbolaΔVP30-GFP virus; read-out: IC50): 7.12 µM
- % infectivity of VSVΔG*-Ebolavirus GP (VSVΔG*-Ebolavirus GP): 6.5±1.6%
- CC50 (VeroVP30 cells): > 10 µM

Compound: 17-Allylamino-17-demethoxygeldanamycin [17-AAG]
- reduction of EbolaΔVP30 virus growth (EbolaΔVP30-GFP): 92%
- Infectivities of VSVΔG*-Ebolavirus GP standardized by the infectivities of VSVΔG*-VSV G (VSVΔG*-Ebolavirus GP; 10 μM): 110%
- % luc activity from the Ebolavirus minigenome (Ebolavirus minigenome): 7.9%±1.5%

Compound: CC(=O)O[C@H]1C[C@@H](OC(C)=O)C(C)(C)C2C[C@@H](O)[C@]3(C)C(CC[C@@]4(C)[C@H](c5ccoc5)OC(=O)[C@H]5O[C@]543)[C@]21C (stereo partly shown) [7-Deacetylkhivorin]
- % GFP inhibition (EbolaΔVP30-GFP virus): 13%
- % cell viability (VeroVP30 cells): 91%

Compound: CC1(C)C(=O)C=C[C@]2(C)[C@H]3CC[C@@]4(C)[C@H](c5ccoc5)OC(=O)[C@H]5O[C@]54[C@]3(C)C=C[C@@H]12 [7-Desacetoxy-6,7-dehydrogedunin]
- % GFP inhibition (EbolaΔVP30-GFP virus): 2%
- % cell viability (VeroVP30 cells): 70%

Compound: CC(=O)OC1CC(OC(C)=O)C2(C)C(CC(OC(C)=O)C3(C)C2CCC2(C)C(c4ccoc4)OC(=O)C4OC423)C1(C)C (stereo not shown) [7-Epikhivorin]
- % GFP inhibition (EbolaΔVP30-GFP virus): 4%
- % cell viability (VeroVP30 cells): 79%

Compound: NS(=O)(=O)c1nn2cc(-c3ccccc3)nc2s1 [AEG 3482, 6-Phenylimidazo[2,1-b]-1,3,4-thiadiazole-2-sulfonamide]
- reduction of EbolaΔVP30 virus growth (EbolaΔVP30-GFP): 5%
- Infectivities of VSVΔG*-Ebolavirus GP standardized by the infectivities of VSVΔG*-VSV G (VSVΔG*-Ebolavirus GP; 10 μM): 135%
- % luc activity from the Ebolavirus minigenome (Ebolavirus minigenome): 34.0%±8.0%

Compound: C=C1[C@@H]([C@@]2(C)C=CC(=O)C(C)(C)[C@@H]2CC(=O)OC)CC[C@@]2(C)[C@H](c3ccoc3)OC(=O)[C@H]3O[C@]132 [Andirobin]
- inhibition at 5 µM (EbolaΔVP30-GFP virus; Zaire ebolavirus): -12%
- % cell viability (VeroVP30 cells; green monkey): 91%

Compound: C=C1[C@@H]2CC[C@@]3(C)[C@H](c4ccoc4)OC(=O)C[C@]13O[C@H]1CC(=O)C(C)(C)[C@H](CC(=O)OC)[C@]12C [Angolensic acid, methyl ester]
- % GFP inhibition (EbolaΔVP30-GFP virus): 4%
- % cell viability (VeroVP30 cells): 85%

Compound: CCc1cc(-c2n[nH]c(C)c2-c2ccc3c(c2)OCCO3)c(O)cc1O [CCT 018159, 4-[4-(2,3-Dihydro-1,4-benzodioxin-6-yl)-5-methyl-1H-pyrazol-3-yl]-6-ethyl-1,3-benzenediol]
- reduction of EbolaΔVP30 virus growth (EbolaΔVP30-GFP): 97%
- effect on VSVΔG*-Ebolavirus GP infectivity (VSVΔG*-Ebolavirus GP): slightly reduced
- Infectivities of VSVΔG*-Ebolavirus GP standardized by the infectivities of VSVΔG*-VSV G (VSVΔG*-Ebolavirus GP; 10 μM): 71%
- reduction in Ebolavirus GP-dependent virus infection (VSVΔG*-Ebolavirus GP; 10 μM): ~30%
- % luc activity from the Ebolavirus minigenome (Ebolavirus minigenome): 8.8%±2.6%

Compound: CC1(C)C=CC(=O)[C@@]2(C)C1CC(=O)[C@]1(C)C2CC[C@@]2(C)[C@H](c3ccoc3)OC(=O)C3OC321 (stereo partly shown) [Deacetoxy-7-oxisogedunin]
- % GFP inhibition (EbolaΔVP30-GFP virus): 41%
- % cell viability (VeroVP30 cells): 84%

Compound: CC1(C)C(=O)C=C[C@]2(C)[C@H]3CC[C@@]4(C)[C@H](c5ccoc5)OC(=O)[C@H]5O[C@]54[C@]3(C)C(=O)C[C@@H]12 [Deacetoxy-7-oxogedunin]
- % GFP inhibition (EbolaΔVP30-GFP virus): 80%
- % cell viability (VeroVP30 cells): 79%

Compound: CC1(C)C(=O)C=C[C@]2(C)[C@H]3CC[C@@]4(C)[C@H](c5ccoc5)OC(=O)[C@H]5O[C@]54[C@]3(C)[C@H](O)C[C@@H]12 [Deacetylgedunin]
- anti-Ebolavirus activity (EbolaΔVP30-GFP virus): did not show any anti-Ebolavirus activity
- inhibition at 5 µM (EbolaΔVP30-GFP virus; Zaire ebolavirus): 45%
- % cell viability (VeroVP30 cells; green monkey): 86%

Compound: CC(=O)O[C@@H]1C[C@H]2C(C)(C)C(=O)CC[C@]2(C)[C@H]2CC[C@@]3(C)[C@H](c4ccoc4)OC(=O)[C@H]4O[C@]43[C@@]21C [Dihydrogedunin]
- inhibition at 5 µM (EbolaΔVP30-GFP virus; Zaire ebolavirus): 96%
- % cell viability (VeroVP30 cells; green monkey): 79%

Compound: CCC(C)C(=O)O[C@@H]1C[C@@]2(C)[C@H](c3ccoc3)OC(=O)CC23OC2(C)OC34[C@H](OC(=O)C(C)C)[C@@]3(O)[C@@H](OC(=O)C5(C)OC5C)[C@@]5(C)C[C@]3(O)[C@@](C)([C@H]5CC(=O)OC)C14O2 (stereo partly shown) [Entandrophragmin]
- % GFP inhibition (EbolaΔVP30-GFP virus): −12%
- % cell viability (VeroVP30 cells): 83%

Compound: CC(=O)O[C@@H]1CC2C(C)(C)C(=O)C3OC3[C@]2(C)C2CC[C@@]3(C)[C@H](c4ccoc4)OC(=O)C4OC43[C@@]21C (stereo partly shown) [Epoxygedunin]
- % GFP inhibition (EbolaΔVP30-GFP virus): 103%
- IC50 (EbolaΔVP30-GFP virus; read-out: IC50): < 0.15 µM
- inhibition of EbolaΔVP30-GFP growth (EbolaΔVP30-GFP): completely inhibited
- % luc activity from the Ebolavirus minigenome (Ebolavirus minigenome): 1.0%±0.1%
- effect on protein expression from the Ebolavirus minigenome (Ebolavirus minigenome): inhibit protein expression from the Ebolavirus minigenome
- % cell viability (VeroVP30 cells): 71%
- CC50 (VeroVP30 cells): > 10 µM

Compound: COC1=C2C[C@@H](C)C[C@H](OC)[C@H](O)[C@@H](C)/C=C(\C)[C@H](OC(N)=O)[C@@H](OC)/C=C\C=C(/C)C(=O)NC(=CC1=O)C2=O [GM, geldanamycin]
- reduction of EbolaΔVP30 virus growth (EbolaΔVP30-GFP): 30%
- Infectivities of VSVΔG*-Ebolavirus GP standardized by the infectivities of VSVΔG*-VSV G (VSVΔG*-Ebolavirus GP; 10 μM): 137%
- % luc activity from the Ebolavirus minigenome (Ebolavirus minigenome): 24.7%±7.7%

Compound: CC(=O)O[C@@H]1C[C@H]2C(C)(C)C(=O)C=C[C@]2(C)[C@H]2CC[C@@]3(C)[C@H](c4ccoc4)OC(=O)[C@H]4O[C@]43[C@@]21C [Gedunin]
- IC50 (EbolaΔVP30-GFP virus; Zaire ebolavirus): 0.33 µM
- inhibition at 5 µM (EbolaΔVP30-GFP virus; Zaire ebolavirus): 102%
- inhibition of EbolaΔVP30-GFP growth (EbolaΔVP30-GFP): completely inhibited
- inhibition of vaccinia virus growth (vaccinia virus): slightly delay the propagation
- inhibition of adenovirus growth (adenovirus Ad-5): slightly inhibitory; also recorded: slightly delay the propagation
- inhibition of VSV growth [1]: slightly delay the propagation
- % luc activity from the Ebolavirus minigenome (Ebolavirus minigenome): 1.3%±0.2%
- effect on protein expression from the Ebolavirus minigenome (Ebolavirus minigenome): inhibit protein expression from the Ebolavirus minigenome
- % cell viability (VeroVP30 cells; green monkey): 77%
- CC50 (in vitro): > 10 µM

Compound: CC(=O)O[C@@H]1CC2C(C)(C)[C@H](O)C=C[C@]2(C)C2CC[C@@]3(C)[C@H](c4ccoc4)OC(=O)C4OC43[C@@]21C (stereo partly shown) [Gedunol]
- % GFP inhibition (EbolaΔVP30-GFP virus): 79%
- % cell viability (VeroVP30 cells): 82%

Compound: CCC(C)C(OC(C)=O)C(=O)O[C@H]1[C@H](O)[C@@H]2[C@@]3(C)C=CC(=O)C(C)(C)[C@@H]3C[C@@H](OC(=O)C(O)C(C)C)[C@@]2(C)[C@@]23O[C@@H]2C[C@@H](c2ccoc2)[C@]13C (stereo partly shown) [Heudelottin C]
- % GFP inhibition (EbolaΔVP30-GFP virus): 104%
- % cell viability (VeroVP30 cells): 5%

Compound: CC(=O)O[C@@H]1CC2C(C)(C)C=CC(=O)[C@]2(C)C2CC[C@@]3(C)[C@H](c4ccoc4)OC(=O)C4OC43[C@@]21C (stereo partly shown) [Isogedunin]
- % GFP inhibition (EbolaΔVP30-GFP virus): 35%
- % cell viability (VeroVP30 cells): 86%

Compound: CC(=O)O[C@H]1C[C@@H](OC(C)=O)C(C)(C)[C@@H]2C[C@@H](OC(C)=O)[C@]3(C)[C@H](CC[C@@]4(C)[C@H](c5ccoc5)OC(=O)[C@H]5O[C@@]534)[C@@]12C [Khivorin]
- inhibition at 5 µM (EbolaΔVP30-GFP virus; Zaire ebolavirus): 0%
- % cell viability (VeroVP30 cells; green monkey): 82%

Compound: C=C1[C@@H]([C@@]2(C)[C@@H](OC(C)=O)CC(=O)O[C@](C)(COC(C)=O)[C@@H]2C(=O)OC)[C@@H](OC=O)[C@H](OC(=O)[C@H](O)[C@H](C)CC)[C@@]2(C)[C@H](c3ccoc3)CC(=O)[C@]12O [Prieurianin]
- inhibition at 5 µM (EbolaΔVP30-GFP virus; Zaire ebolavirus): -17%
- % cell viability (VeroVP30 cells; green monkey): 89%

Compound: CCC(C)C(=O)O[C@@H]1C[C@@]2(C)[C@H](c3ccoc3)OC(=O)CC23OC2(C)O[C@]14[C@]1(C)[C@@H](CC(=O)OC)C5(C)CC1(O)[C@](O)(C5OC(=O)C1(C)OC1C)[C@@H](OC(C)=O)[C@]34O2 (stereo partly shown) [Utilin]
- inhibition at 5 µM (EbolaΔVP30-GFP virus; Zaire ebolavirus): 4%
- % cell viability (VeroVP30 cells; green monkey): 75%

Compound: CN1C2CCC1CC(OC(c1ccccc1)c1ccccc1)C2 (stereo not shown) [benztropine mesylate]
- infection of VSV pseudotyped with Ebola GP bound to cell surfaces [2]: inhibit infection
- reduction of titers of pseudotyped viruses [3]: 98-99%
- reduction of virus titers [4]: about 75%
- effect on growth of VSV (VSV): does not affect the growth
- effect on growth of influenza virus (influenza virus): does not affect the growth
- inhibition of the PI3 kinase-Akt pathway [5]: did not inhibit

Compound: Heudelottin E
- % GFP inhibition (EbolaΔVP30-GFP virus): −49%
- % cell viability (VeroVP30 cells): 93%
